Twelve compounds from patent US20150087673A1, “METHODS FOR USING AND BIOMARKERS FOR AMPK-ACTIVATING COMPOUNDS” (RIGEL PHARMACEUTICALS, INC., priority 2013, published 2015) can be followed below.

The assay has as its system AMPK. Kind of assay: AMPK activation assay (enzyme-linked immunosorbent assay). It is filed as cell-based. In short, it runs like this: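 Test compounds were added, and kinase activation was then detected by immunoassay following established kit procedures.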
`COc1ccc(CN2CCC(NC(=O)c3ccc(C(=O)N4CCC(Oc5cccc(NC(=O)C6CC6)c5)CC4)nc3)CC2)cc1` [Compound 435, 6-(4-(3-(cyclopropanecarboxamido)phenoxy)piperidine-1-carbonyl)-N-(1-(4-methoxybenzyl)piperidin-4-yl)nicotinamide] yielded an EC50 below 500 nM. The value for `COc1ccc(C(=O)C2CCN(C(=O)c3ccc(C(=O)N[C@@H]4CCN(Cc5ccc(OC(C)C)cc5)C[C@H]4F)cn3)CC2)cc1` (relative stereo) [Compound 353, N-((trans)-3-fluoro-1-(4-isopropoxybenzyl)piperidin-4-yl)-6-(4-(4-methoxybenzoyl)piperidine-1-carbonyl)nicotinamide] was below 500 nM; that for `COc1ccc(C(=O)C2CCN(C(=O)c3ccc(C(=O)NC4CCN(Cc5ccc(C(=O)N(C)C)cc5)CC4)cn3)CC2)cc1` [Compound 490, N-(1-(4-(dimethylcarbamoyl)benzyl)piperidin-4-yl)-6-(4-(4-methoxybenzoyl)piperidine-1-carbonyl)nicotinamide] was 1000 to 5000 nM; that for `N#Cc1ccc(CN2CCC(NC(=O)c3ccc(N4CCC(Oc5ccc(C#N)cc5)CC4)cn3)CC2)cc1` [Compound 165, N-(1-(4-cyanobenzyl)piperidin-4-yl)-5-(4-(4-cyanophenoxy)piperidin-1-yl)picolinamide] was below 500 nM. `CN1CCN(c2ccc(C(=O)C3CCN(C(=O)c4ccc(C(=O)NC5CCN(Cc6ccc(C#N)cc6)CC5)cn4)CC3)cc2)CC1` [Compound 243, N-(1-(4-cyanobenzyl)piperidin-4-yl)-6-(4-(4-(4-methylpiperazin-1-yl)benzoyl)piperidine-1-carbonyl)nicotinamide]: the EC50 is below 500 nM. In the case of `N#Cc1ccc(CN2CCC(NC(=O)c3ccc(C(=O)N4CCC(Cc5ccc(C(N)=O)cc5)CC4)cn3)CC2)cc1` [Compound 141, 5-(4-(4-carbamoylbenzyl)piperidine-1-carbonyl)-N-(1-(4-cyanobenzyl)piperidin-4-yl)picolinamide], the EC50 is 500 to 1000 nM. With `COc1ccc(CN2CCC(NC(=O)c3ccc(C(=O)N4CCC(C(=O)c5ccc(N6CCCC6)cc5)CC4)nc3)CC2)cc1F` [Compound 443, N-(1-(3-fluoro-4-methoxybenzyl)piperidin-4-yl)-6-(4-(4-(pyrrolidin-1-yl)benzoyl)piperidine-1-carbonyl)nicotinamide] the figure was below 500 nM. On to `O=C(Nc1cccc(-c2ccccc2)c1)c1ccc(C(=O)N2CCN(Cc3ccc(F)cc3)CC2)cn1` [Compound 12], for which the EC50 fell in the range of 5000 to 10000 nM. The value for `N#Cc1ccc(OC2CCN(C(=O)c3ccc(C(=O)NC4CCN(Cc5ccc(N6CCCC6)cc5)CC4)nc3)CC2)cc1` [Compound 197, 5-(4-(4-cyanophenoxy)piperidine-1-carbonyl)-N-(1-(4-(pyrrolidin-1-yl)benzyl)piperidin-4-yl)picolinamide] was below 500 nM; that for `O=C(NC1CCN(Cc2ccc(OC(F)(F)F)cc2)CC1)c1ccc(C(=O)N2CCC(S(=O)(=O)c3ccc(F)cc3)CC2)nc1` [Compound 470, 6-(4-(4-fluorophenylsulfonyl)piperidine-1-carbonyl)-N-(1-(4-(trifluoromethoxy)benzyl)piperidin-4-yl)nicotinamide] was below 500 nM.

As for `N#Cc1ccc(CN2CCC(NC(=O)c3ccc(C(=O)N4CCC(C(=O)c5ccc(N6CCOCC6)cc5)CC4)cn3)CC2)cc1` [Compound 376, N-(1-(4-cyanobenzyl)piperidin-4-yl)-5-(4-(4-morpholinobenzoyl)piperidine-1-carbonyl)picolinamide], the EC50 was below 500 nM. With `COc1ccc(CN2CCC(NC(=O)c3ccc(C(=O)N4CCC(Oc5ccc(C#N)cc5)CC4)nc3)CC2)cc1` [Compound 319, 6-(4-(4-cyanophenoxy)piperidine-1-carbonyl)-N-(1-(4-methoxybenzyl)piperidin-4-yl) nicotinamide], the EC50 was below 500 nM.
